Results on 1 compound are retold here after patent US6531645B1, “RAS/P21 transgenic mouse” (University of South Florida, priority 2000, dated 2003).

A value given as a limit tells only on which side of the number the result lay.

In this assay the test system is mammary tumors of MMTV/v-Ha-ras/p21WAF1 (−/−) transgenic mice. In words: Antitumor efficacy of FTI-2148 in MMTV/v-Ha-ras/p21WAF1 (−/−) transgenic mice. Type of assay: in vivo, mouse. The settings on record: 50 mg/Kg/day by subcutaneous osmotic mini-pump. As for the experimental part: The MMTV/v-Ha-Ras/p21waf(−/−) transgenic mice are generated as described herein. When the three mammary tumors reach 4500 mm^3, 2000 mm^3 and 900 mm^3 (see FIG. 1), the mice are implanted subcutaneously with an osmotic mini-pump that delivers 50 mg/Kg/day of the farnesyltransferase inhibitor FTI-2148 that was designed to block oncogenic H-Ras malignant transformation. […] Thus, within 6 days of drug treatment one skilled in the art can determine whether a drug has antitumor activity.
Tumor Development Monitoring and Sample Collection. The female offspring are monitored weekly for tumors by observation and palpation. Tumor diameters are measured in three dimensions using calipers, and tumor volume is calculated as length x width x height. Samples of tumor and normal tissue are collected in 10% neutral buffered formalin for histopathologic analysis. All surgical and experimental procedures performed on the mice are in accordance the NIH guidelines outlined in the “Guide for Care and Use of Laboratory Animals” (NIH publication 85-23). Animals are autopsied immediately after sacrifice, and external as well as internal organs are grossly examined. Representative tissue samples are obtained from salivary glands, mammary glands, lungs, liver, kidneys, spleen, and Harderian (lacrimal) glands. For general microscopy, tissues are embedded in paraffin, and 3 μm-thick sections are cut and stained with hematoxylin and eosin. Tissues are also processed using either an avidin-biotin complex method or a labeled streptavidin-biotin method after antigen retrieval. […] Negative and positive controls include the omission of the primary antibody and normal or tumor tissues with known high marker expression. p21^WAF1/CIP1 expression is analyzed by immunohistochemistry with an anti-p21 antibody (sc-397-G, Santa Cruz Biotechnology). […]

With `CSCC[C@H](NC(=O)c1ccc(CNCc2cnc[nH]2)cc1-c1ccccc1C)C(=O)O` [FTI-2148], for the setting “day 15”, the “fate by day 15 of one of the three mammary tumors” value is recorded as “one tumor disappears”; the “tumor volume by day 15 of the two tumors that started out at 4500 mm^3 and 2000 mm^3” value is recorded as “less than 500 mm^3”. Moreover, under “three mammary tumors of 4500, 2000 and 900 mm^3 at start”, the “time of treatment within which the tumors start to regress” value is recorded as not above 6 days.
